Experimental data: ChEMBL document CHEMBL1201862, “PubChem BioAssay data set” (2004)
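Briefly, cells in 96-well plates were exposed to five compound concentrations for 48 h, and endpoints were estimated by linear interpolation. The concentration for 50% growth inhibition is given as GI50.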 The source made the active and inactive calls. Cut-off read from the data, not from the text of the source: active = GI50 up to about 1.1 µM and inactive = higher.

How the values were obtained:
Assay in all cases: NCI tumour cell line growth inhibition, 48 h
K562 = test system: K562
HCT-116 = test system: HCT-116
RXF 393 = test system: RXF 393
TK-10 = test system: TK-10
UACC-257 = test system: UACC-257
SW-620 = test system: SW-620
HOP-62 = test system: HOP-62
A549 = test system: A549
HOP-92 = test system: HOP-92
SF-539 = test system: SF-539
SK-MEL-2 = test system: SK-MEL-2
Malme-3M = test system: Malme-3M
OVCAR-5 = test system: OVCAR-5
IGROV-1 = test system: IGROV-1
U-251 = test system: U-251
NCI-H460 = test system: NCI-H460
MOLT-4 = test system: MOLT-4

Compound | GI50 (K562) | GI50 (HCT-116) | GI50 (RXF 393) | GI50 (TK-10) | GI50 (UACC-257) | GI50 (SW-620) | GI50 (HOP-62) | GI50 (A549) | GI50 (HOP-92) | GI50 (SF-539) | GI50 (SK-MEL-2) | GI50 (Malme-3M) | GI50 (OVCAR-5) | GI50 (IGROV-1) | GI50 (U-251) | GI50 (NCI-H460) | GI50 (MOLT-4)
O=[N+]([O-])c1c(/C=N/Nc2ccccc2)oc(-c2ccc3c(c2)OCO3)c1-c1ccc2c(c1)OCO2 | 3.06 µM (inactive) | 8.47 µM (inactive) | 36.5 µM (inactive) | 19 µM (inactive) | 30.3 µM (inactive) | 11.1 µM (inactive) | 3.9 µM (inactive) | 11 µM (inactive) | 19.8 µM (inactive) | 3.16 µM (inactive) | 2.49 µM (inactive) | 16.4 µM (inactive) | 5.79 µM (inactive) | 6.14 µM (inactive) | – | – | –
COc1ccc(CNc2cnc3cc(N)ccc3n2)cc1 | > 100 µM (inactive) | > 100 µM (inactive) | > 100 µM (inactive) | > 100 µM (inactive) | – | > 100 µM (inactive) | > 100 µM (inactive) | > 100 µM (inactive) | – | > 100 µM (inactive) | > 100 µM (inactive) | > 100 µM (inactive) | > 100 µM (inactive) | > 100 µM (inactive) | > 100 µM (inactive) | > 100 µM (inactive) | 69 µM (inactive)
CCN/C(=N\Nc1ccc([N+](=O)[O-])cc1)P(=O)(OC(C)C)OC(C)C | > 100 µM (inactive) | > 100 µM (inactive) | – | > 100 µM (inactive) | 68.1 µM (inactive) | > 100 µM (inactive) | 95.9 µM (inactive) | > 100 µM (inactive) | 66.5 µM (inactive) | > 100 µM (inactive) | > 100 µM (inactive) | 51.2 µM (inactive) | > 100 µM (inactive) | – | > 100 µM (inactive) | > 100 µM (inactive) | > 100 µM (inactive)
Cc1cnc2c(c1)C(=O)C1=C(OC(C)(C)CC1O)C2=O (centres undefined) | 16.8 µM (inactive) | 14.4 µM (inactive) | 15.5 µM (inactive) | 18.5 µM (inactive) | 13.3 µM (inactive) | 14.7 µM (inactive) | 19.4 µM (inactive) | 16.2 µM (inactive) | 16.7 µM (inactive) | 16.4 µM (inactive) | > 100 µM (inactive) | 14.4 µM (inactive) | > 100 µM (inactive) | 15.2 µM (inactive) | 15.2 µM (inactive) | 11 µM (inactive) | 15.9 µM (inactive)
NC1=C(NC(=O)Cc2ccc(F)cc2)C(=O)c2ccccc2C1=O | 58.7 µM (inactive) | 32 µM (inactive) | 24.6 µM (inactive) | 30.9 µM (inactive) | 79.3 µM (inactive) | > 100 µM (inactive) | > 52.4 µM (inactive) | 85.3 µM (inactive) | 23.8 µM (inactive) | > 78 µM (inactive) | > 60 µM (inactive) | 49.5 µM (inactive) | > 100 µM (inactive) | 23.4 µM (inactive) | 13.9 µM (inactive) | > 82.2 µM (inactive) | > 67.9 µM (inactive)
c1ccc(C2=NN3CN(N2)c2ccccc2OCCCOc2ccccc23)cc1 | > 100 µM (inactive) | > 100 µM (inactive) | > 100 µM (inactive) | > 100 µM (inactive) | – | > 100 µM (inactive) | > 100 µM (inactive) | > 100 µM (inactive) | – | > 100 µM (inactive) | > 100 µM (inactive) | > 100 µM (inactive) | > 100 µM (inactive) | > 100 µM (inactive) | > 100 µM (inactive) | > 100 µM (inactive) | 63.8 µM (inactive)
CCC(=O)OC[n+]1ccc2c(C)c3[nH]c4ccccc4c3c(C)c2c1 | 0.618 µM (active) | 0.115 µM (active) | 0.552 µM (active) | 1.36 µM (inactive) | 1.37 µM (inactive) | 0.173 µM (active) | – | 0.272 µM (active) | 0.107 µM (active) | 0.478 µM (active) | 1.03 µM (active) | 1.35 µM (inactive) | 0.516 µM (active) | 0.142 µM (active) | 0.397 µM (active) | 0.033 µM (active) | 0.0358 µM (active)
O=C(c1ccccc1)C1CCCCN1C(=O)c1ccccc1 (centres undefined) | > 100 µM (inactive) | > 100 µM (inactive) | > 100 µM (inactive) | > 100 µM (inactive) | > 100 µM (inactive) | > 100 µM (inactive) | > 100 µM (inactive) | > 100 µM (inactive) | – | > 100 µM (inactive) | > 100 µM (inactive) | > 100 µM (inactive) | – | > 100 µM (inactive) | > 100 µM (inactive) | > 100 µM (inactive) | > 100 µM (inactive)
